Measurements from PMC5218480 (PLoS ONE, 2017).

System: MV-4-11 cells
Assay: Gene expression microarray analysis (Affymetrix PrimeView) and GSEA
Format: cell-based, human
Set-up: RFU PODN (11730768_x_at) / Fold change /veh PODN (11730768_x_at) / RFU LINC00158 (11744669_a_at) / Fold change /veh LINC00158 (11744669_a_at) / RFU DUSP10 (11751237_a_at) / Fold change /veh DUSP10 (11751237_a_at) / RFU ID3 (11757404_x_at) / Fold change /veh ID3 (11757404_x_at) / RFU PLEKHG5 (11737974_s_at) / Fold change /veh PLEKHG5 (11737974_s_at) / RFU LRRC4B (11730491_at) / Fold change /veh LRRC4B (11730491_at) / RFU GIMAP4 (11747438_a_at) / Fold change /veh GIMAP4 (11747438_a_at) / RFU KRT8 (11758183_x_at) / Fold change /veh KRT8 (11758183_x_at) / RFU CNN1 (11734310_a_at) / Fold change /veh CNN1 (11734310_a_at) / RFU VPS37D (11726825_at) / Fold change /veh VPS37D (11726825_at) / RFU C10orf10 (11716522_x_at) / Fold change /veh C10orf10 (11716522_x_at) / RFU KIR2DL2 /// KIR2DL4 /// KIR2DL5A /// KIR2DL5B /// KIR2DS1 /// KIR2DS2 /// KIR2DS3 /// KIR2DS4 /// KIR3DL3 /// KIR3DL3 /// KIR3DS1 (11738374_at) / Fold change /veh KIR2DL2 /// KIR2DL4 /// KIR2DL5A /// KIR2DL5B /// KIR2DS1 /// KIR2DS2 /// KIR2DS3 /// KIR2DS4 /// KIR3DL3 /// KIR3DL3 /// KIR3DS1 (11738374_at) / RFU C1QL1 (11718748_at) / Fold change /veh C1QL1 (11718748_at) / RFU TMPRSS4 (11747572_a_at) / Fold change /veh TMPRSS4 (11747572_a_at) / RFU HAMP (11756126_x_at) / Fold change /veh HAMP (11756126_x_at) / RFU RNFT2 (11725882_a_at) / Fold change /veh RNFT2 (11725882_a_at) / RFU NR4A2 (11747474_a_at) / Fold change /veh NR4A2 (11747474_a_at) / RFU ABCC12 (11746883_a_at) / Fold change /veh ABCC12 (11746883_a_at) / RFU TMEM136 (11760407_x_at) / Fold change /veh TMEM136 (11760407_x_at) / RFU CLDN22 /// WWC2 (11732394_at) / Fold change /veh CLDN22 /// WWC2 (11732394_at) / RFU HLA-DPB1 (11760878_x_at) / Fold change /veh HLA-DPB1 (11760878_x_at) / RFU SPINT1 (11716480_a_at) / Fold change /veh SPINT1 (11716480_a_at) / RFU GAP43 (11754022_s_at) / Fold change /veh GAP43 (11754022_s_at) / RFU A4GNT (11735810_at) / Fold change /veh A4GNT (11735810_at) / RFU PRB3 (11715151_x_at) / Fold change /veh PRB3 (11715151_x_at) / RFU TUBB4B (11761932_at) / Fold change /veh TUBB4B (11761932_at) / RFU CAPN14 (11732068_a_at) / Fold change /veh CAPN14 (11732068_a_at) / RFU TMCC2 (11721928_a_at) / Fold change /veh TMCC2 (11721928_a_at) / RFU IRGQ (11745062_a_at) / Fold change /veh IRGQ (11745062_a_at) / RFU FAM174B (11720279_a_at) / Fold change /veh FAM174B (11720279_a_at) / RFU TMPRSS4 (11748680_a_at) / Fold change /veh TMPRSS4 (11748680_a_at) / RFU FAM212B (11763350_a_at) / Fold change /veh FAM212B (11763350_a_at) / RFU PLEKHG5 (11743358_a_at) / Fold change /veh PLEKHG5 (11743358_a_at) / RFU ZSCAN30 (11745921_a_at) / Fold change /veh ZSCAN30 (11745921_a_at) / RFU CMKLR1 (11741424_a_at) / Fold change /veh CMKLR1 (11741424_a_at) / RFU LOC101060620 /// MAPK8IP1 (11723275_at) / Fold change /veh LOC101060620 /// MAPK8IP1 (11723275_at) / RFU SPTSSB (11747773_x_at) / Fold change /veh SPTSSB (11747773_x_at) / RFU PRSS12 (11739890_at) / Fold change /veh PRSS12 (11739890_at) / RFU BIN1 (11741810_x_at) / Fold change /veh BIN1 (11741810_x_at) / RFU WNT11 (11732464_a_at) / Fold change /veh WNT11 (11732464_a_at) / RFU C10orf10 (11716521_a_at) / Fold change /veh C10orf10 (11716521_a_at) / RFU C5orf56 (11738089_at) / Fold change /veh C5orf56 (11738089_at) / RFU CYB561 (11721691_x_at) / Fold change /veh CYB561 (11721691_x_at) / RFU ANKRD19P (11752326_a_at) / Fold change /veh ANKRD19P (11752326_a_at) / RFU OR2T12 /// OR2T33 /// OR2T8 (11738714_s_at) / Fold change /veh OR2T12 /// OR2T33 /// OR2T8 (11738714_s_at) / RFU VCAN (11748164_a_at) / Fold change /veh VCAN (11748164_a_at) / RFU JSRP1 (11732532_at) / Fold change /veh JSRP1 (11732532_at) / RFU KRTAP10-11 (11738290_x_at) / Fold change /veh KRTAP10-11 (11738290_x_at) / RFU MYO3A (11730013_a_at) / Fold change /veh MYO3A (11730013_a_at) / RFU EBF3 (11725865_a_at) / Fold change /veh EBF3 (11725865_a_at) / RFU CAMK2N1 (11719241_x_at) / Fold change /veh CAMK2N1 (11719241_x_at) / RFU C5orf56 (11738088_a_at) / Fold change /veh C5orf56 (11738088_a_at) / RFU OLFML3 (11715873_a_at) / Fold change /veh OLFML3 (11715873_a_at) / RFU LOC100653217 /// NTM (11731650_a_at) / Fold change /veh LOC100653217 /// NTM (11731650_a_at) / RFU MAPK11 (11762145_a_at) / Fold change /veh MAPK11 (11762145_a_at) / RFU FIZ1 (11724087_x_at) / Fold change /veh FIZ1 (11724087_x_at) / RFU OASL (11726364_x_at) / Fold change /veh OASL (11726364_x_at) / RFU SOX15 (11748057_x_at) / Fold change /veh SOX15 (11748057_x_at) / RFU CD79A (11719716_a_at) / Fold change /veh CD79A (11719716_a_at) / RFU HIST1H1D (11736915_at) / Fold change /veh HIST1H1D (11736915_at) / RFU CASKIN2 (11723855_a_at) / Fold change /veh CASKIN2 (11723855_a_at) / RFU LOC730098 (11760151_x_at) / Fold change /veh LOC730098 (11760151_x_at) / RFU OR4N2 (11742367_at) / Fold change /veh OR4N2 (11742367_at) / RFU PRRT2 (11749266_a_at) / Fold change /veh PRRT2 (11749266_a_at) / RFU SNX32 (11753110_a_at) / Fold change /veh SNX32 (11753110_a_at) / RFU CDHR5 (11726645_a_at) / Fold change /veh CDHR5 (11726645_a_at) / RFU RCAN1 (11760418_a_at) / Fold change /veh RCAN1 (11760418_a_at) / RFU FAM167A (11723789_a_at) / Fold change /veh FAM167A (11723789_a_at) / RFU FAM26E (11764081_at) / Fold change /veh FAM26E (11764081_at) / RFU ISYNA1 (11749810_s_at) / Fold change /veh ISYNA1 (11749810_s_at) / RFU ACY1 (11761880_at) / Fold change /veh ACY1 (11761880_at) / RFU 11764098_at / Fold change /veh 11764098_at / RFU SAMD14 (11745864_x_at) / Fold change /veh SAMD14 (11745864_x_at) / RFU NPB (11741838_a_at) / Fold change /veh NPB (11741838_a_at) / RFU TMPRSS6 (11731388_a_at) / Fold change /veh TMPRSS6 (11731388_a_at) / RFU KRTAP10-2 (11738614_at) / Fold change /veh KRTAP10-2 (11738614_at) / RFU ARHGAP8 /// PRR5-ARHGAP8 (11727945_x_at) / Fold change /veh ARHGAP8 /// PRR5-ARHGAP8 (11727945_x_at) / RFU KRTAP5-7 /// NADSYN1 (11734609_at) / Fold change /veh KRTAP5-7 /// NADSYN1 (11734609_at) / RFU RASL12 (11751679_a_at) / Fold change /veh RASL12 (11751679_a_at) / RFU CDKN2B (11736163_a_at) / Fold change /veh CDKN2B (11736163_a_at) / RFU PRF1 (11729649_at) / Fold change /veh PRF1 (11729649_at) / RFU, ZNF638 /// ZNF638-IT1 / Fold change vs veh, ZNF638 /// ZNF638-IT1 / RFU, PANK3 / Fold change vs veh, PANK3 / RFU, SH3YL1 / Fold change vs veh, SH3YL1 / RFU, ZEB2 / Fold change vs veh, ZEB2 / RFU, NRIP1 / Fold change vs veh, NRIP1 / RFU, PTTG1IP / Fold change vs veh, PTTG1IP / RFU, CAPN2 / Fold change vs veh, CAPN2 / RFU, MED14 / Fold change vs veh, MED14 / RFU, SNORA58 / Fold change vs veh, SNORA58 / RFU, C1orf63 / Fold change vs veh, C1orf63 / RFU, LRRFIP1 / Fold change vs veh, LRRFIP1 / RFU, NDUFAF7 / Fold change vs veh, NDUFAF7 / RFU, SLC12A2 / Fold change vs veh, SLC12A2 / RFU, IBTK / Fold change vs veh, IBTK / RFU, ESF1 / Fold change vs veh, ESF1 / Fold change vs veh, TMEM50B / RFU, TAOK1 / Fold change vs veh, TAOK1 / RFU, ACBD3 / Fold change vs veh, ACBD3 / RFU, TMA16 / Fold change vs veh, TMA16 / RFU, RWDD3 / Fold change vs veh, RWDD3 / RFU, BCAT1 / Fold change vs veh, BCAT1 / RFU, EDEM3 / Fold change vs veh, EDEM3 / RFU, TMEM33 / Fold change vs veh, TMEM33 / RFU, WDR75 / Fold change vs veh, WDR75 / RFU, AHCTF1 / Fold change vs veh, AHCTF1 / RFU, TFRC / Fold change vs veh, TFRC / RFU, ZDHHC17 / Fold change vs veh, ZDHHC17 / RFU, NOM1 / Fold change vs veh, NOM1 / RFU, ARL8B / Fold change vs veh, ARL8B / RFU, ZBTB11 / Fold change vs veh, ZBTB11 / RFU, TAMM41 / Fold change vs veh, TAMM41 / RFU, KIAA1704 /// LOC100996395 / Fold change vs veh, KIAA1704 /// LOC100996395 / RFU, ING1 / Fold change vs veh, ING1 / RFU, TRMT61B / Fold change vs veh, TRMT61B / RFU, FUBP3 / Fold change vs veh, FUBP3 / RFU, TP53 / Fold change vs veh, TP53 / RFU, TNKS2 / Fold change vs veh, TNKS2 / RFU, ZFP14 / Fold change vs veh, ZFP14 / RFU, ACTR2 / Fold change vs veh, ACTR2 / RFU, PPP3R1 / Fold change vs veh, PPP3R1 / RFU, PIK3R1 / Fold change vs veh, PIK3R1 / RFU, HNRNPA1 / Fold change vs veh, HNRNPA1 / RFU, RNF170 / Fold change vs veh, RNF170 / RFU, ZNF28 / Fold change vs veh, ZNF28 / RFU, RNGTT / Fold change vs veh, RNGTT / RFU, OGT / Fold change vs veh, OGT / RFU, BRD1 / Fold change vs veh, BRD1 / RFU, MARS / Fold change vs veh, MARS / RFU, ZNF655 / Fold change vs veh, ZNF655 / RFU, FAHD1 / Fold change vs veh, FAHD1 / RFU, BDP1 / Fold change vs veh, BDP1 / RFU, LRRCC1 / Fold change vs veh, LRRCC1 / RFU, ARID1A / Fold change vs veh, ARID1A / RFU, ZNF146 / Fold change vs veh, ZNF146 / RFU, ZNF330 / Fold change vs veh, ZNF330 / RFU, GPN3 / Fold change vs veh, GPN3 / RFU, C9orf123 / Fold change vs veh, C9orf123 / RFU, N4BP2L2 / Fold change vs veh, N4BP2L2 / RFU, ARFIP1 / Fold change vs veh, ARFIP1 / RFU, FAM179B / Fold change vs veh, FAM179B / RFU, BCL10 / Fold change vs veh, BCL10 / RFU, UHRF1BP1L / Fold change vs veh, UHRF1BP1L / RFU, BET1 / Fold change vs veh, BET1 / RFU, CNOT2 / Fold change vs veh, CNOT2 / RFU, ZNF268 / Fold change vs veh, ZNF268 / Fold change vs veh, ZNF507 / RFU, DGCR2 / Fold change vs veh, DGCR2 / RFU, WDSUB1 / Fold change vs veh, WDSUB1 / Fold change vs veh, HSP90B1 /// MIR3652 / RFU, ADSS / Fold change vs veh, ADSS / RFU, GK / Fold change vs veh, GK / RFU, ZNF148 / Fold change vs veh, ZNF148 / RFU, TAF9 / Fold change vs veh, TAF9 / RFU, SLC1A5 / Fold change vs veh, SLC1A5 / RFU, SLMO2 / Fold change vs veh, SLMO2 / RFU, ABCC4 / Fold change vs veh, ABCC4 / RFU, LOC101060439 /// RAP1B / Fold change vs veh, LOC101060439 /// RAP1B / RFU, RFX7 / Fold change vs veh, RFX7 / RFU, GTPBP10 / Fold change vs veh, GTPBP10 / RFU, CNEP1R1 / Fold change vs veh, CNEP1R1 / RFU, BIVM-ERCC5 /// ERCC5 / Fold change vs veh, BIVM-ERCC5 /// ERCC5 / RFU, ILF3 / Fold change vs veh, ILF3 / RFU 11762660_at / Fold change /veh 11762660_at / RFU VCAN (11757783_s_at) / Fold change /veh VCAN (11757783_s_at) / RFU DDX43 (11728927_at) / Fold change /veh DDX43 (11728927_at) / RFU KRT8 (11758188_x_at) / Fold change /veh KRT8 (11758188_x_at) / RFU NKD1 (11759106_at) / Fold change /veh NKD1 (11759106_at) / RFU SRD5A1 (11742802_a_at) / Fold change /veh SRD5A1 (11742802_a_at) / RFU TPSAB1 /// TPSB2 (11721975_s_at) / Fold change /veh TPSAB1 /// TPSB2 (11721975_s_at) / RFU GSTM3 (11746129_a_at) / Fold change /veh GSTM3 (11746129_a_at) / RFU IL23R (11737362_x_at) / Fold change /veh IL23R (11737362_x_at) / RFU TMEM51 (11727254_a_at) / Fold change /veh TMEM51 (11727254_a_at) / RFU PIWIL2 (11732686_x_at) / Fold change /veh PIWIL2 (11732686_x_at) / RFU ORM1 (11744905_x_at) / Fold change /veh ORM1 (11744905_x_at) / RFU CCDC152 (11743942_at) / Fold change /veh CCDC152 (11743942_at) / RFU ECM1 (11717891_a_at) / Fold change /veh ECM1 (11717891_a_at) / RFU IL23R (11748794_a_at) / Fold change /veh IL23R (11748794_a_at) / RFU TNFAIP8L3 (11732012_x_at) / Fold change /veh TNFAIP8L3 (11732012_x_at) / RFU MBOAT4 (11741988_at) / Fold change /veh MBOAT4 (11741988_at) / RFU 11764193_at / Fold change /veh 11764193_at / RFU TMEM53 (11763286_at) / Fold change /veh TMEM53 (11763286_at) / RFU MAGEB2 (11727129_at) / Fold change /veh MAGEB2 (11727129_at) / RFU TMEM200A (11744735_a_at) / Fold change /veh TMEM200A (11744735_a_at) / RFU CCDC152 (11751479_a_at) / Fold change /veh CCDC152 (11751479_a_at) / RFU FAM211A (11726209_a_at) / Fold change /veh FAM211A (11726209_a_at) / RFU RGS16 (11746705_a_at) / Fold change /veh RGS16 (11746705_a_at) / RFU VCAN (11755009_s_at) / Fold change /veh VCAN (11755009_s_at) / RFU RHOB (11743442_s_at) / Fold change /veh RHOB (11743442_s_at) / RFU RGS16 (11720943_a_at) / Fold change /veh RGS16 (11720943_a_at) / RFU RGS16 (11720944_at) / Fold change /veh RGS16 (11720944_at) / RFU, VPS4B / Fold change vs veh, VPS4B / RFU, CREB1 / Fold change vs veh, CREB1 / RFU, DNAJC13 / Fold change vs veh, DNAJC13 / RFU, GNAQ / Fold change vs veh, GNAQ / RFU, CDK5R1 / Fold change vs veh, CDK5R1 / RFU, ZRANB3 / Fold change vs veh, ZRANB3 / RFU, CUL4A / Fold change vs veh, CUL4A / RFU, CCNY / Fold change vs veh, CCNY / RFU, UFL1 / Fold change vs veh, UFL1 / RFU, COG3 / Fold change vs veh, COG3 / RFU, DIAPH2 / Fold change vs veh, DIAPH2 / RFU, SKA2 / Fold change vs veh, SKA2 / RFU, AFF3 / Fold change vs veh, AFF3 / RFU, LMF1 / Fold change vs veh, LMF1 / RFU, IPO11 / Fold change vs veh, IPO11 / RFU, DFFB / Fold change vs veh, DFFB / RFU, FOXP1 / Fold change vs veh, FOXP1 / RFU, CARD8 / Fold change vs veh, CARD8 / RFU, STRN3 / Fold change vs veh, STRN3 / RFU, ADK / Fold change vs veh, ADK / RFU, RASSF2 / Fold change vs veh, RASSF2 / RFU, WIPF1 / Fold change vs veh, WIPF1 / RFU, LARP1B / Fold change vs veh, LARP1B / RFU, RASA1 / Fold change vs veh, RASA1 / RFU, RB1 / Fold change vs veh, RB1 / RFU, PPFIA1 / Fold change vs veh, PPFIA1 / RFU, MAT2A / Fold change vs veh, MAT2A / RFU, CCT5 / Fold change vs veh, CCT5 / RFU, WDR92 / Fold change vs veh, WDR92 / RFU, CUX1 / Fold change vs veh, CUX1 / RFU, TTC7A / Fold change vs veh, TTC7A / RFU, TMEM135 / Fold change vs veh, TMEM135 / RFU, DEPTOR / Fold change vs veh, DEPTOR / RFU, CPM / Fold change vs veh, CPM / RFU, DNAJB6 / Fold change vs veh, DNAJB6 / RFU, CACNA2D3 / Fold change vs veh, CACNA2D3 / RFU, DTX4 / Fold change vs veh, DTX4 / RFU, TFCP2 / Fold change vs veh, TFCP2 / RFU, GMCL1 /// GMCL1P1 / Fold change vs veh, GMCL1 /// GMCL1P1 / RFU, AEBP2 / Fold change vs veh, AEBP2 / RFU, SNHG1 /// SNORD22 /// SNORD25 /// SNORD26 /// SNORD27 /// SNORD28 /// SNORD29 /// SNORD31 / Fold change vs veh, SNHG1 /// SNORD22 /// SNORD25 /// SNORD26 /// SNORD27 /// SNORD28 /// SNORD29 /// SNORD31 / Fold change (Aza/veh), C12orf56 (ProbeSet 11735607_a_at) / Fold change (ACY-1035/veh), C12orf56 (ProbeSet 11735607_a_at) / Fold change (Aza/veh), FGFR1OP (ProbeSet 11751329_s_at) / Fold change (ACY-1035/veh), FGFR1OP (ProbeSet 11751329_s_at) / Fold change (Aza/veh), VPS36 (ProbeSet 11739960_a_at) / Fold change (ACY-1035/veh), VPS36 (ProbeSet 11739960_a_at) / RFU SYPL1 (11715823_x_at) / Fold change /veh SYPL1 (11715823_x_at) / RFU IGFBP7 (11715501_s_at) / Fold change /veh IGFBP7 (11715501_s_at) / RFU REEP3 (11722064_at) / Fold change /veh REEP3 (11722064_at) / RFU IGLL1 (11728026_x_at) / Fold change /veh IGLL1 (11728026_x_at): dose or concentration left out as unconfirmed
Conditions: ProbeSet 11722463_a_at; LIST B

Nc1ncn([C@@H]2O[C@H](CO)[C@@H](O)[C@H]2O)c(=O)n1 [azacitidine]
Fold change vs veh, TNKS2: 0.86
